The values below come from publication PMC5584254, “Identification of novel small molecule Beclin 1 mimetics activating autophagy” (Oncotarget, 2017).

Assay [1] deals with T1, Bcl-xL-Beclin 1 complex (Homo sapiens, UniProt Q07817).
T1 construct: made in house
Description: FP-based high-throughput screening, primary screen. It is filed as binding. To be noted: first screen; 40 μM compound, 2.5 μM Bcl-xL, 400 nM 20-mer. The source says: Next, we optimized the FP competitive binding assay in a 384-well microplate format and carried out a small-scale HTS using a small library, which contains 6580 compounds from Prestwick, Microsource and our in-house CMLD library. Then, the FP assay was optimized and applied in screening the larger Chembridge library consisting of 43736 compounds. HTS cascades are shown in Supplementary Figure 1A–1B. […] All chemical structures can be found on the PubChem website (http://pubchem.ncbi.nlm.nih.gov/).
(§1) Then the plates were read by Envision (Perkin Elmer, Waltham, MA). […] The hits were selected from library stocks and reconfirmed in a concentration response FP assay (6 doses ranging from 5 μM to 160 μM or 8 doses ranging from 0.5 μM to 60 μM).

Assay [2] addresses T1, Bcl-xL-Beclin 1 complex. The assay is described as follows: Concentration response FP reconfirmation of HTS hits. To be noted: for inhibition at 5 µM: read-out: Dose-response (% Inhibition) 5 μM; for inhibition at 10 µM: read-out: Dose-response (% Inhibition) 10 μM; for inhibition at 20 µM: read-out: Dose-response (% Inhibition) 20 μM; for inhibition at 40 µM: read-out: Dose-response (% Inhibition) 40 μM; for inhibition at 80 µM: read-out: Dose-response (% Inhibition) 80 μM; for inhibition at 160 µM: read-out: Dose-response (% Inhibition) 160 μM. Type of assay: binding. How it is done:
as §1

Structures can show the parent of a compound that is named as a salt. Where two headings read alike, the source gives them in different places.

T1 sequence (Q07817 whole entry, one chain of several): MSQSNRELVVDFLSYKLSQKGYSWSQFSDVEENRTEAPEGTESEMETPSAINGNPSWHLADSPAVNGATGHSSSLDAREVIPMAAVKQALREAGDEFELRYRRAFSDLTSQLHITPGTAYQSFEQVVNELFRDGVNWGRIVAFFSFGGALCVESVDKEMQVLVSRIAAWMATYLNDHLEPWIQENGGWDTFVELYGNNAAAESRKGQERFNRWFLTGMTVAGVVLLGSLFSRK

Consider `CCCCCCCCCCCCCCCCC(C(=O)O)C(O)(CC(=O)O)C(=O)O` (stereo not shown) [Compound A19, AGARIC ACID], for which, at Bcl-xL-Beclin 1 complex [1], the “Primary Screen % Inhibition” value is on record as 15.85% and the “Primary Screen mP” value was found to be 118.2 mP. In addition, the “Dose-response (% Inhibition) 5 μM” value on Bcl-xL-Beclin 1 complex [2] (5 μM, hits of first screen) came out at 3.8%. Moreover, the “Dose-response (% Inhibition) 10 μM” value on Bcl-xL-Beclin 1 complex [2] (10 μM, hits of first screen) was 6.3%. The “Dose-response (% Inhibition) 20 μM” value at Bcl-xL-Beclin 1 complex [2] (20 μM, hits of first screen) came to 9.1%. The “Dose-response (% Inhibition) 40 μM” value at Bcl-xL-Beclin 1 complex [2] (40 μM, hits of first screen) is 12.7%. For the same compound, the “Dose-response (% Inhibition) 80 μM” value at Bcl-xL-Beclin 1 complex [2] (80 μM, hits of first screen) was found to be 20.3%. Further, the “Dose-response (% Inhibition) 160 μM” value on Bcl-xL-Beclin 1 complex [2] (160 μM, hits of first screen) was 20.9%.
As for `CCc1oc2ccccc2c1C(=O)c1cc(Br)c(O)c(Br)c1` [Compound A20, BENZBROMARONE], on Bcl-xL-Beclin 1 complex [1], the “Primary Screen mP” value is given as 125.0 mP and the inhibition at 40 µM was determined as 9.05%. Also, on Bcl-xL-Beclin 1 complex [2] (5 μM, hits of first screen), the inhibition at 5 µM was 0.2%. At Bcl-xL-Beclin 1 complex [2] (10 μM, hits of first screen), the inhibition at 10 µM was determined as 0.6%. Also, the inhibition at 20 µM at Bcl-xL-Beclin 1 complex [2] (20 μM, hits of first screen) was 1%. For the same compound, the inhibition at 40 µM at Bcl-xL-Beclin 1 complex [2] (40 μM, hits of first screen) worked out at 1.1%. Also, at Bcl-xL-Beclin 1 complex [2] (80 μM, hits of first screen), the inhibition at 80 µM was found to be 6.1%. Also, the inhibition at 160 µM at Bcl-xL-Beclin 1 complex [2] (160 μM, hits of first screen) came to 11.3%.
Turning to `OCCN(CCO)c1nc(N2CCCCC2)c2nc(N(CCO)CCO)nc(N3CCCCC3)c2n1` [Compound A22, DIPYRIDAMOLE], the “Primary Screen mP” value at Bcl-xL-Beclin 1 complex [1] is reported as 72.7 mP. Besides, the inhibition at 40 µM against Bcl-xL-Beclin 1 complex [1] amounted to 47.8%; on Bcl-xL-Beclin 1 complex [2] (40 μM, hits of first screen), 46.7%. Further, the inhibition at 5 µM on Bcl-xL-Beclin 1 complex [2] (5 μM, hits of first screen) worked out at 10.1%. Also, the inhibition at 10 µM at Bcl-xL-Beclin 1 complex [2] (10 μM, hits of first screen) was determined as 21%. In addition, at Bcl-xL-Beclin 1 complex [2] (20 μM, hits of first screen), the inhibition at 20 µM amounted to 35.1%. Also, the inhibition at 80 µM on Bcl-xL-Beclin 1 complex [2] (80 μM, hits of first screen) came to 62.9%. Also, the inhibition at 160 µM on Bcl-xL-Beclin 1 complex [2] (160 μM, hits of first screen) worked out at 72.4%.
On to `CC[C@@]1(O)C(=O)OCc2c1cc1n(c2=O)Cc2cc3c(CN(C)C)c(O)ccc3nc2-1` [Compound A23, TOPOTECAN HYDROCHLORIDE], for which the “Primary Screen mP” value at Bcl-xL-Beclin 1 complex [1] is 43.8 mP. Also, the inhibition at 40 µM against Bcl-xL-Beclin 1 complex [1] came out at 68.7%; at Bcl-xL-Beclin 1 complex [2] (40 μM, hits of first screen), 70.9%. Also, at Bcl-xL-Beclin 1 complex [2] (5 μM, hits of first screen), the inhibition at 5 µM was found to be 39.8%. On Bcl-xL-Beclin 1 complex [2] (10 μM, hits of first screen), the inhibition at 10 µM was determined as 54.8%. Moreover, the inhibition at 20 µM at Bcl-xL-Beclin 1 complex [2] (20 μM, hits of first screen) is 64.7%. Also, the inhibition at 80 µM on Bcl-xL-Beclin 1 complex [2] (80 μM, hits of first screen) was determined as 102%. Moreover, at Bcl-xL-Beclin 1 complex [2] (160 μM, hits of first screen), the inhibition at 160 µM stood at 103%.
For the compound `COc1cccc2c1C(=O)c1c(O)c3c(c(O)c1C2=O)C[C@@](O)(C(=O)CO)C[C@@H]3O[C@H]1C[C@H](N)[C@@H](O)[C@H](C)O1` [Compound A24, EPIRUBICIN HYDROCHLORIDE], on Bcl-xL-Beclin 1 complex [1], the “Primary Screen mP” value was 136.0 mP and the inhibition at 40 µM worked out at 22.8%. Further, at Bcl-xL-Beclin 1 complex [2] (5 μM, hits of first screen), the inhibition at 5 µM amounted to 6.8%. Moreover, at Bcl-xL-Beclin 1 complex [2] (10 μM, hits of first screen), the inhibition at 10 µM was found to be 11.3%. Besides, at Bcl-xL-Beclin 1 complex [2] (20 μM, hits of first screen), the inhibition at 20 µM was 16.2%. Besides, the inhibition at 40 µM at Bcl-xL-Beclin 1 complex [2] (40 μM, hits of first screen) was 23.1%. At Bcl-xL-Beclin 1 complex [2] (80 μM, hits of first screen), the inhibition at 80 µM came to 34.4%. The inhibition at 160 µM on Bcl-xL-Beclin 1 complex [2] (160 μM, hits of first screen) is 40.9%.
Take `COc1cccc2c1C(=O)c1c(O)c3c(c(O)c1C2=O)C[C@@](O)(C(=O)CO)C[C@@H]3O[C@H]1C[C@H](N)[C@H](O)[C@H](C)O1` [Compound A25, DOXORUBICIN HYDROCHLORIDE]: at Bcl-xL-Beclin 1 complex [1], the “Primary Screen mP” value amounted to 75.9 mP and the inhibition at 40 µM was found to be 44%. Besides, at Bcl-xL-Beclin 1 complex [2] (5 μM, hits of first screen), the inhibition at 5 µM is 18.9%. Besides, on Bcl-xL-Beclin 1 complex [2] (10 μM, hits of first screen), the inhibition at 10 µM was determined as 29.1%. In addition, the inhibition at 20 µM at Bcl-xL-Beclin 1 complex [2] (20 μM, hits of first screen) is 36.5%. Besides, the inhibition at 40 µM on Bcl-xL-Beclin 1 complex [2] (40 μM, hits of first screen) was 41.7%. Further, the inhibition at 80 µM on Bcl-xL-Beclin 1 complex [2] (80 μM, hits of first screen) turned out to be 48.6%. Besides, at Bcl-xL-Beclin 1 complex [2] (160 μM, hits of first screen), the inhibition at 160 µM was determined as 53.2%.
For `C[n+]1c2cc(N)ccc2cc2ccc(N)cc21.[Cl-]` [Compound A26, ACRIFLAVINIUM HYDROCHLORIDE], on Bcl-xL-Beclin 1 complex [1], the “Primary Screen % Inhibition” value is recorded as 102.40% and the “Primary Screen mP” value is -3.2 mP. For the same compound, the “Dose-response (% Inhibition) 5 μM” value at Bcl-xL-Beclin 1 complex [2] (5 μM, hits of first screen) is reported as 102.5%. For the same compound, the “Dose-response (% Inhibition) 10 μM” value at Bcl-xL-Beclin 1 complex [2] (10 μM, hits of first screen) is reported as 102.5%. Also, on Bcl-xL-Beclin 1 complex [2] (20 μM, hits of first screen), the “Dose-response (% Inhibition) 20 μM” value came out at 102.5%. Moreover, the “Dose-response (% Inhibition) 40 μM” value at Bcl-xL-Beclin 1 complex [2] (40 μM, hits of first screen) was found to be 102.5%. Besides, the “Dose-response (% Inhibition) 80 μM” value on Bcl-xL-Beclin 1 complex [2] (80 μM, hits of first screen) was 102.0%. For the same compound, the “Dose-response (% Inhibition) 160 μM” value at Bcl-xL-Beclin 1 complex [2] (160 μM, hits of first screen) came out at 102.4%.
On to `O=C1C(Cl)=C(Cl)C(=O)C(Cl)=C1Cl` [Compound A27, CHLORANIL], for which, at Bcl-xL-Beclin 1 complex [1], the “Primary Screen mP” value stood at 140.9 mP and the inhibition at 40 µM was found to be 27.8%. On Bcl-xL-Beclin 1 complex [2], the inhibition at 5 µM is -3%, the inhibition at 10 µM stood at 19.4%, the inhibition at 20 µM worked out at 22.6% and the inhibition at 40 µM was determined as 23.4%. Moreover, on Bcl-xL-Beclin 1 complex [2], the inhibition at 80 µM was 28.5% and the inhibition at 160 µM was determined as 35.9%.
